Data from patent publication US10702512B2, “Treatment of debilitating fatigue” (A. CARLSSON RESEARCH AB, priority 2015, dated 2020).

Assays:
ME/CFS patients [1] = assay: Trail making test A (TMT A); type: in vivo, human
Protocol: Next, patients were evaluated using a neuropsychological test. 61 patients were included in a neuropsychological examination. All subjects were tested once in connection with the randomization with the BNIS neuropsychological screening test. 20-30 minutes was required for this test. With the purpose of measuring the cognitive effects of the OSU6162 treatment six more tests were distributed at a first occasion before the initiation of treatment and at a second occasion after the treatment was completed. These tests required 20 minutes each. All tests were performed by a neuropsychologist. Trail making test A (TMT A) requires the subject to draw a line as quickly as possible connecting a series of numbers. It is a time-based measure of attention, where time and quality are noted and requires motor effectiveness, visual scanning, speed and flexibility. The test has a high sensitivity for brain dysfunction.

ME/CFS patients [2] = assay: Trail making test B (TMT B); type: in vivo, human
Protocol: Next, patients were evaluated using a neuropsychological test. 61 patients were included in a neuropsychological examination. All subjects were tested once in connection with the randomization with the BNIS neuropsychological screening test. 20-30 minutes was required for this test. With the purpose of measuring the cognitive effects of the OSU6162 treatment six more tests were distributed at a first occasion before the initiation of treatment and at a second occasion after the treatment was completed. These tests required 20 minutes each. All tests were performed by a neuropsychologist. […] The subject follows a mental track and the test requires the ability to handle more than one stimulus at a time, as well as flexibility in shifting between different activities. It has a high sensitivity for brain dysfunction and is regarded to be related to prefrontal functioning.

SMILES: CCCN1CCC[C@@H](c2cccc(S(C)(=O)=O)c2)C1.Cl [OSU6162, (3S)-3-[3-(methylsulfonyl)-phenyl]-1-propylpiperidine hydrochloride]
- TMT A, max (ME/CFS patients [1]; after treatment): 48 s
- TMT A, mean (ME/CFS patients [1]; after treatment): 28.5
- TMT A, median (ME/CFS patients [1]; after treatment): 29
- TMT A, min (ME/CFS patients [1]; after treatment): 15
- TMT A difference between OSU6162 and placebo groups (ME/CFS patients [1]; before and after treatment): No significant differences
- TMT A, max (ME/CFS patients [1]; before treatment): 57 s
- TMT A, mean (ME/CFS patients [1]; before treatment): 33.4
- TMT A, median (ME/CFS patients [1]; before treatment): 32
- TMT A, min (ME/CFS patients [1]; before treatment): 16
- TMT A, Difference (ME/CFS patients [1]; before vs after treatment): 10
- TMT B, max (ME/CFS patients [2]; after treatment): 145 s
- TMT B, mean (ME/CFS patients [2]; after treatment): 61.2
- TMT B, median (ME/CFS patients [2]; after treatment): 29
- TMT B, min (ME/CFS patients [2]; after treatment): 31
- TMT B difference between OSU6162 and placebo groups (ME/CFS patients [2]; before and after treatment): No significant differences
- TMT B, max (ME/CFS patients [2]; before treatment): 134 s
- TMT B, mean (ME/CFS patients [2]; before treatment): 71.7
- TMT B, median (ME/CFS patients [2]; before treatment): 32
- TMT B, min (ME/CFS patients [2]; before treatment): 44
- TMT B, Difference (ME/CFS patients [2]; before vs after treatment): 10
